# Measured values published in paper PMC9043997, “LEAP2 reduces postprandial glucose excursions and ad libitum food intake in healthy men” (Cell Reports Medicine, 2022).
# Where a SMILES comes first, the peptide text is derived from it. Bridges are numbered along the chain shown (N, C = ends).
# How the values were obtained:
# Assay type in all cases: in vivo, human
# Details in all cases: mean ± SEM
# healthy men [1] = assay: Plasma free fatty acids, glycerol and triglycerides during LEAP2 infusion, crossover study
# Source text: (§1) The infusion was terminated when participants had finished eating.
# (§2) For analysis of plasma glucose, blood was distributed in fluoride heparin-coated tubes, centrifuged immediately for 30 s (12,100 g, room temperature) and measured bedside by the glucose oxidase method (YSI 2900 Biochemistry Analyzer; YSI Incorporated, Yellow Springs, Ohio, USA). For analysis of LEAP2, blood was collected in chilled K3EDTA tubes each containing 250 KIU of aprotinin. For analysis of acyl ghrelin, blood was collected in chilled K2EDTA tubes added 20 μL pefabloc (100 mg/mL; Merck Millipore, Burlington, Massachusetts, USA). Subsequently, pefabloc-treated plasma was acidified with HCl (12.5 μL 2M HCl per 500 μL plasma; Merck Millipore, Burlington, Massachusetts, USA). For analysis of glucagon, blood was collected in K2EDTA tubes. For analysis of GH, insulin, C-peptide, free fatty acids, glycerol, triglycerides and acetaminophen (paracetamol), blood was collected in tubes with lithium and heparin. All tubes were immediately cooled on ice, centrifuged for 15 min (2,000 g, 4°C) and stored at −80°C until analysis. LEAP2 concentrations were determined by an in-house radioimmunoassay directed against the N-terminal part of LEAP2. LEAP-2 was used for standards, and the tracer was a peptide composed of the 12 N-terminal amino acids of LEAP2, with a ^125I-labelled tyrosine added to the C-terminal end. The precision and accuracy of the assay were evaluated based on European Medicines Agency's guidelines for bioanalytical assay validation. […] Due to supply chain disruptions from the COVID-19 pandemic, acyl ghrelin was only measured in plasma samples at timepoints 0, 60, 105, 165 and 255 min. […] Plasma GH was measured by Immunodiagnostic system-iSYS assay (IS-3700; IDS Limited, Boldon, UK). The assay is based on chemiluminesence technology and was performed according to the manufacturer’|'s instructions. […] For analysis of glucagon, plasma was extracted in a final concentration of 70% ethanol. Glucagon was measured using a C-terminal directed antiserum (code number 4305) measuring glucagon of pancreatic origin as previously described.[40] […] Plasma insulin and C-peptide were measured using a two-sided electrochemiluminescence immunoassay (Atellica IM Analyzer; Siemens Healthcare, Ballerup, Denmark). Plasma triglycerides and acetaminophen were analyzed by spectrophotometric methods following enzymatic hydrolysis and oxidation (Siemens Atellica CH 930; Siemens Healthcare, Ballerup, Denmark). Plasma concentrations of free fatty acids and glycerol were determined by enzymatic methods modified to run on a COBAS 6000 automatic analyzer (Roche, Rødovre, Denmark) using a NEFA-HR assay (Wako Chemicals, Neuss, Germany) and glycerol assay (Randox Laboratories, Crumlin, UK), respectively.
# (§3) Unless otherwise stated, results are presented as mean ± SEM. Baseline values were calculated as a mean of timepoints −35, −10 and 0 min or, when only available −10 and 0 min. Baseline values for the postprandial period were calculated as a mean of timepoint 60 min. Calculations of AUC were based on the trapezoidal rule. AUC values are reported for the period 0 to 255 min. To assess the fasting and postprandial periods separately, AUC values are reported for the periods 0 to 60 min and 60 to 255 min, respectively. Student’s paired t test was used to test for differences in baseline, peak, time to peak, AUC and mean values and ad libitum food intake in men.
# healthy men [2] = assay: Plasma glucose during LEAP2 infusion with liquid mixed meal test, crossover study
# Source text: as §1, §2, §3
# healthy men [3] = assay: Plasma growth hormone during LEAP2 infusion, crossover study
# Source text: as §1, §2, §3
# [4] = healthy men n = 20, LEAP2 day, before infusion
# [5] = healthy men n = 20, iv LEAP2 ~25 pmol/kg/min, 0 to 255 min
# [6] = healthy men n = 20, iv LEAP2 ~25 pmol/kg/min, fasting period
# [7] = healthy men n = 20, iv LEAP2 ~25 pmol/kg/min, liquid mixed meal at 65 min
# [8] = healthy men n = 20, iv LEAP2 ~25 pmol/kg/min, postprandial period
# [9] = healthy men n = 20, iv LEAP2 ~25 pmol/kg/min, time = 60 min
compound,measurement,setting,value
"CC[C@H](C)[C@@H]1NC(=O)[C@@H]2CSSC[C@@H](C(=O)N[C@@H](CO)C(=O)N[C@@H](CC(C)C)C(=O)N[C@@H](CO)C(=O)N[C@H](C(=O)N[C@@H](C)C(=O)N[C@@H](CCC(N)=O)C(=O)N[C@@H](CCC(=O)O)C(=O)O)C(C)C)NC(=O)[C@H](CCCNC(=N)N)NC(=O)[C@H](CCCNC(=N)N)NC(=O)[C@H](CCCCN)NC(=O)[C@H](CCCNC(=N)N)NC(=O)[C@H](CSSC[C@H](NC(=O)[C@H](CO)NC(=O)[C@H](C)NC(=O)CNC(=O)[C@@H](NC(=O)[C@@H]3CCCN3C(=O)[C@H](CCCNC(=N)N)NC(=O)[C@H](CC(C)C)NC(=O)[C@H](CO)NC(=O)[C@@H](NC(=O)CNC(=O)[C@H](CCCNC(=N)N)NC(=O)[C@H](Cc3c[nH]c4ccccc34)NC(=O)[C@H](Cc3ccccc3)NC(=O)[C@@H]3CCCN3C(=O)[C@@H](NC(=O)[C@@H](N)CCSC)[C@@H](C)O)C(C)C)[C@@H](C)CC)C(=O)N[C@@H](CCCNC(=N)N)C(=O)N[C@@H](CC(=O)O)C(=O)N[C@@H](CC(=O)O)C(=O)N[C@@H](CO)C(=O)N[C@@H](CCC(=O)O)C(=O)N2)NC(=O)[C@H](CC(C)C)NC(=O)[C@H](CCCNC(=N)N)NC(=O)[C@H]([C@@H](C)O)NC1=O [LEAP2, liver-expressed antimicrobial peptide 2] (H-MTPFWRGVSLRPIGASCRDDSECITRLCRKRRCSLSVAQE-OH; disulfide 17-28, 23-33 (inferred); N-terminus and C-terminus assumed)",Free fatty acids Baseline,healthy men [1]; [4],339 ± 18.4 µmol/L
same,Glycerol Baseline,healthy men [1]; [4],26.6 ± 2.45 µmol/L
same,Triglycerides Baseline,healthy men [1]; [4],920 ± 62.2 µmol/L
same,Free fatty acids AUC,healthy men [1]; [5],43.2 ± 2.49 mmol·min/L
same,Glycerol AUC,healthy men [1]; [5],4.87 ± 0.57 mmol·min/L
same,Triglycerides AUC,healthy men [1]; [5],263 ± 16.7 mmol·min/L
same,Free fatty acids AUC0–60 min,healthy men [1]; [6],18.9 ± 1.18 mmol·min/L
same,Glycerol AUC0–60 min,healthy men [1]; [6],1.65 ± 0.15 mmol·min/L
same,Triglycerides AUC0–60 min,healthy men [1]; [6],53.5 ± 3.14 mmol·min/L
same,Free fatty acids Nadir,healthy men [1]; [7],58.4 ± 3.94 µmol/L
same,Free fatty acids Time to nadir,healthy men [1]; [7],155 ± 7.63 min
same,Glycerol Nadir,healthy men [1]; [7],11.7 ± 2.12 µmol/L
same,Glycerol Time to nadir,healthy men [1]; [7],144 ± 10.2 min
same,Triglycerides Peak,healthy men [1]; [7],"1,275 ± 84.8 μmol/L"
same,Triglycerides Time to peak,healthy men [1]; [7],195 ± 5.33 min
same,Free fatty acids AUC60–255 min,healthy men [1]; [8],24.4 ± 1.51 mmol·min/L
same,Glycerol AUC60–255 min,healthy men [1]; [8],3.22 ± 0.44 mmol·min/L
same,Triglycerides AUC60–255 min,healthy men [1]; [8],210 ± 13.8 mmol·min/L
same,Free fatty acids Postprandial baseline,healthy men [1]; [9],272 ± 16.4 µmol/L
same,Glycerol Postprandial baseline,healthy men [1]; [9],22.9 ± 2.12 µmol/L
same,Triglycerides Postprandial baseline,healthy men [1]; [9],847 ± 48.3 µmol/L
same,Glucose Baseline,"healthy men [2]; healthy men n = 20, LEAP2 day, before infusion (mean of -35, -10, 0 min)",5.02 ± 0.06 mmol/L
same,Glucose AUC,"healthy men [2]; healthy men n = 20, iv LEAP2 ~25 pmol/kg/min, 0 to 255 min, trapezoidal","1,288 ± 13.4 mmol/L × min"
same,Glucose Postprandial end,"healthy men [2]; healthy men n = 20, iv LEAP2 ~25 pmol/kg/min, after liquid mixed meal",4.48 ± 0.11 mmol/L
same,plasma glucose AUC 0–60 min,healthy men [2]; [6],295 ± 3.02 mmol/L/min
same,Glucose Peak,healthy men [2]; [7],6.21 ± 0.12 mmol/L
same,Glucose Time to peak,healthy men [2]; [7],140 ± 12.7 min
same,Glucose AUC60–255 min,"healthy men [2]; healthy men n = 20, iv LEAP2 ~25 pmol/kg/min, postprandial period after liquid mixed meal",992 ± 12.4 mmol·min/L
same,Glucose Postprandial baseline,healthy men [2]; [9],4.96 ± 0.05 mmol/L
same,Growth hormone Baseline,healthy men [3]; [4],0.594 ± 0.300 ng/mL
same,Growth hormone AUC,healthy men [3]; [5],33.8 ± 11.8 ng·min/mL
same,Growth hormone AUC0–60 min,healthy men [3]; [6],20.2 ± 9.76 ng·min/mL
same,Growth hormone Nadir,healthy men [3]; [7],0.042 ± 0.004 ng/mL
same,Growth hormone Time to nadir,healthy men [3]; [7],116 ± 17.2 min
same,Growth hormone AUC60–255 min,healthy men [3]; [8],13.6 ± 2.32 ng·min/mL
same,Growth hormone Postprandial baseline,healthy men [3]; [9],0.121 ± 0.048 ng/mL
